# From ChEMBL document CHEMBL4765331, “Amides of pyrrole- and thiophene-fused anthraquinone derivatives: A role of the heterocyclic core in antitumor properties” (Eur J Med Chem, 2020)
# pIC50, pKd: −log10 of the molar value. The source made the active and inactive calls. The rule behind the calls is not given here.
# How the values were obtained:
# [1] = test system: K562; assay: Antiproliferative activity against human K562 cells assessed as inhibition of cell proliferation measured after 72 hrs by MTT assay; format: functional, cell-based; conditions: K562, 72 h
# [2] = test system: HL-60; assay: Antiproliferative activity against human HL-60 cells assessed as inhibition of cell proliferation measured after 72 hrs by MTT assay; format: functional, cell-based; conditions: HL-60, 72 h
# [3] = test system: TERT-RPE1; assay: Cytotoxicity against human TERT-RPE1 cells assessed as inhibition of cell proliferation measured after 72 hrs by MTT assay; format: cell-based; conditions: RPE-1, 72 h
# [4] = test system: HCT-116; assay: Antiproliferative activity against human HCT-116 cells assessed as inhibition of cell proliferation measured after 72 hrs by MTT assay; format: functional, cell-based; conditions: HCT-116, 72 h
# [5] = test system: NCI-H460; assay: Antiproliferative activity against human NCI-H460 cells assessed as inhibition of cell proliferation measured after 72 hrs by MTT assay; format: functional, cell-based; conditions: NCI-H460, 72 h
# [6] = test system: CAPAN-1; assay: Antiproliferative activity against human CAPAN-1 cells assessed as inhibition of cell proliferation measured after 72 hrs by MTT assay; format: functional, cell-based; conditions: CAPAN-1, 72 h
# [7] = test system: HCT-116; assay: Antiproliferative activity against human HCT-116 cells with inactivated p53 gene assessed as inhibition of cell proliferation measured after 72 hrs by MTT assay; format: functional, cell-based; conditions: HCT-116, 72 h
# [8] = Antiproliferative activity against P-gp-positive/doxorubicin-resistant human K562/4 cells assessed as inhibition of cell proliferation measured after 72 hrs by MTT assay; format: functional; conditions: K562/4, 72 h
# [9] = Resistance index, ratio of IC50 for human P-gp-positive/Doxorubicin-resistant K562/4 cells to IC50 for human K562 cells; format: functional
# [10] = test system: Calf thymus DNA; assay: Binding affinity to calf thymus DNA assessed as stoichiometry ratio of compound-DNA complex formation by scatchard plot analysis; conditions: Bos taurus
# [11] = test system: Calf thymus DNA; assay: Binding affinity to calf thymus DNA assessed as dissociation constant by scatchard plot analysis; parameters: species or system Bos taurus
# [12] = test system: Calf thymus DNA; assay: Binding affinity to calf thymus DNA assessed as DNA intercalation by measuring decrease of negative DNA band at 245 nm at 50 uM by circular dichroism spectral analysis; format: tissue-based; conditions: Bos taurus
# [13] = test system: Calf thymus DNA; assay: Binding affinity to calf thymus double stranded DNA at 10 uM measured after 5 mins by flourescence spectroscopy method; conditions: Bos taurus
# [14] = test system: Calf thymus DNA; assay: Binding affinity to calf thymus DNA assessed as binding constant by scatchard plot analysis; conditions: Bos taurus
# [15] = test system: P388; assay: Antitumour activity against mouse P388 cells xenografted intraperitoneally in BDF1 mouse assessed as […] T/C ratio at 20 mg/kg, ip administered qd for 5 days (reference value: 100%); format: functional; conditions: dose 20 mg/kg/day; time 5 day
# [16] = test system: P388; assay: Antitumour activity against mouse P388 cells xenografted intraperitoneally in BDF1 mouse assessed as mean life span time at 20 mg/kg, ip administered qd for 5 days (reference value: 11.5 +/-0.9 days); format: functional; conditions: dose 20 mg/kg/day; time 5 day
# [17] = Drug uptake in mouse NIH3T3 cells assessed as compound localization in nucleus at 1 uM measured after 15 mins by laser scanning microscope; format: ADME, subcellular; conditions: nih3t3, 0.25 h
pIC50 [1],pIC50 [2],pIC50 [4],pIC50 [5],pIC50 [7],Drug uptake [17],Structure (SMILES),pIC50 [3],pIC50 [6],pIC50 [8],Ratio IC50 [9],Ratio [10],pKd [11],Activity [12],Activity [13],Kb [14],T/C [15],Time [16]
5.89,5.33,5.40,4.90,5.42,–,N[C@@H]1CN(C(=O)c2csc3c(O)c4c(c(O)c23)C(=O)c2ccccc2C4=O)C[C@H]1N,5.04,5.59,4.84,11.2,–,–,–,–,–,–,–
5.92,6.15,5.74,4.79,5.49,–,Cc1c(C(=O)N2CC[C@H](N)C2)c2c(O)c3c(c(O)c2n1C)C(=O)c1ccccc1C3=O,4.79,5.96,4.60,19.2,3,5.89,Active,Active,7.5 10^5/M,–,–
5.92,5.39,5.70,6.10,–,–,N[C@@H]1CCN(C(=O)c2csc3c(O)c4c(c(O)c23)C(=O)c2ccccc2C4=O)C1,4.90,5.70,–,–,–,–,–,–,–,–,–
5.66,5.47,4.77,4.79,–,–,CC(=O)Cn1c(C)c(C(=O)N2CC[C@H](N)C2)c2c(O)c3c(c(O)c21)C(=O)c1ccccc1C3=O,< 4.70,4.87,–,–,–,–,–,–,–,–,–
5.62,5.51,5.32,4.94,5.15,–,Cc1[nH]c2c(O)c3c(c(O)c2c1C(=O)N1C[C@@H](N)[C@H](N)C1)C(=O)c1ccccc1C3=O,< 4.70,5.06,< 4.30,>20.8,–,–,–,–,–,–,–
5.70,6.05,5.72,5.77,–,–,NC1CCN(C(=O)c2csc3c(O)c4c(c(O)c23)C(=O)c2ccccc2C4=O)CC1,4.80,6.52,–,–,–,–,–,–,–,–,–
5.77,5.96,5.64,5.68,5.60,–,CCn1c(C)c(C(=O)N2CC[C@H](N)C2)c2c(O)c3c(c(O)c21)C(=O)c1ccccc1C3=O,4.87,5.92,4.55,16.5,–,–,–,–,–,–,–
5.92,5.89,5.66,4.84,5.70,–,CCCn1c(C)c(C(=O)N2CC[C@H](N)C2)c2c(O)c3c(c(O)c21)C(=O)c1ccccc1C3=O,4.77,5.35,5.15,5.8,–,–,–,–,–,–,–
6.40,6.70,5.70,5.59,–,–,Cc1[nH]c2c(O)c3c(c(O)c2c1C(=O)N1CCCC(N)C1)C(=O)c1ccccc1C3=O (configuration not stated),4.78,5.96,–,–,–,–,–,–,–,–,–
4.87,4.88,4.77,4.70,–,–,Cc1c(C(=O)N2CC[C@H](N)C2)c2c(O)c3c(c(O)c2n1CC(=O)O)C(=O)c1ccccc1C3=O,< 4.70,4.84,–,–,–,–,–,–,–,–,–
5.89,5.52,6.10,5.37,–,–,NC1CCCN(C(=O)c2csc3c(O)c4c(c(O)c23)C(=O)c2ccccc2C4=O)C1 (racemic),5.10,5.96,–,–,–,–,–,–,–,–,–
6.10,6.00,5.64,5.36,–,–,Cc1[nH]c2c(O)c3c(c(O)c2c1C(=O)N[C@@H]1CCNC1)C(=O)c1ccccc1C3=O,4.83,6.00,–,–,–,–,–,–,–,–,–
5.64,6.10,5.85,5.54,–,–,Cc1[nH]c2c(O)c3c(c(O)c2c1C(=O)N1CCC(N)CC1)C(=O)c1ccccc1C3=O,4.85,5.77,–,–,–,–,–,–,–,–,–

# Second part, the compound before the results:
Structure (SMILES),pIC50 [1],pIC50 [2],pIC50 [4],pIC50 [5],pIC50 [7],Drug uptake [17],pIC50 [3],pIC50 [6],pIC50 [8],Ratio IC50 [9],Ratio [10],pKd [11],Activity [12],Activity [13],Kb [14],T/C [15],Time [16]
O=C1c2ccccc2C(=O)c2c1c(O)c1scc(C(=O)NC3CCNCC3)c1c2O,5.82,5.80,5.77,5.92,–,–,5.24,5.92,–,–,–,–,–,–,–,–,–
O=C1c2ccccc2C(=O)c2c1c(O)c1scc(C(=O)NC3CCCNC3)c1c2O (racemic),5.17,5.59,5.49,5.57,–,–,5.17,5.92,–,–,–,–,–,–,–,–,–
Cc1[nH]c2c(O)c3c(c(O)c2c1C(=O)N1CC[C@@H](N)C1)C(=O)c1ccccc1C3=O,6.52,6.70,5.82,6.30,–,–,4.80,6.30,–,–,–,–,–,–,–,150%,17.3 days
Cc1[nH]c2c(O)c3c(c(O)c2c1C(=O)NC1CCNCC1)C(=O)c1ccccc1C3=O,6.40,6.70,5.82,5.96,–,–,4.93,6.52,–,–,–,–,–,–,–,–,–
Cc1c(C(=O)N2CC[C@H](N)C2)c2c(O)c3c(c(O)c2n1Cc1ccccc1)C(=O)c1ccccc1C3=O,6.15,5.96,5.74,5.27,5.74,–,4.83,5.80,5.26,7.9,–,–,–,–,–,–,–
Cc1[nH]c2c(O)c3c(c(O)c2c1C(=O)N[C@H]1CCNC1)C(=O)c1ccccc1C3=O,6.15,6.00,5.74,5.28,–,–,4.77,6.00,–,–,–,–,–,–,–,–,–
O=C1c2ccccc2C(=O)c2c1c(O)c1scc(C(=O)N[C@@H]3CCNC3)c1c2O,6.30,5.34,6.10,5.70,–,–,4.81,5.66,–,–,–,–,–,–,–,–,–
Cc1[nH]c2c(O)c3c(c(O)c2c1C(=O)NC1CCCNC1)C(=O)c1ccccc1C3=O (configuration not stated),5.49,5.74,6.00,6.00,–,–,4.90,6.40,–,–,–,–,–,–,–,–,–
COc1cccc2c1C(=O)c1c(O)c3c(c(O)c1C2=O)C[C@@](O)(C(=O)CO)C[C@@H]3O[C@H]1C[C@H](N)[C@H](O)[C@H](C)O1 [DOXORUBICIN],–,–,–,6.40,–,Active,6.00,5.77,5.26,–,–,–,–,–,–,–,–
O=C1c2ccccc2C(=O)c2c1c(O)c1scc(C(=O)N[C@H]3CCNC3)c1c2O,6.15,5.41,6.05,5.85,–,–,4.83,5.55,–,–,–,–,–,–,–,–,–
